Experimental findings from ChEMBL document CHEMBL1147145, “Scaffold targeting drug-resistant colon cancers” (J Med Chem, 2007) are described below.

Non-standard residues stand in square brackets, D forms with d. Residues, ends and D or L forms follow the SMILES beside them. *: point of attachment. NMeF = CN[C@@H](Cc1ccccc1)C(=O)O; Cha = N[C@@H](CC1CCCCC1)C(=O)O; NMeL = CN[C@@H](CC(C)C)C(=O)O; dNMeL = CN[C@H](CC(C)C)C(=O)O; dNMeV = CN[C@@H](C(=O)O)C(C)C; Cbz = O=C(OCc1ccccc1)*; Sar = CNCC(=O)O

The subject of experiment [1] is HCT-116. The experiment in a line: Growth inhibition in HCT116 cells assessed as inhibition of [3H]thymidine incorporation at 1 uM relative to control. It counts as functional. The settings on record: Homo sapiens, read-out: TGI. (Dividing cells build labelled thymidine or BrdU into new DNA.)
In experiment [2] the test system is HCT-15. Kind of experiment: Growth inhibition in HCT15 cells assessed as inhibition of [3H]thymidine incorporation at 1 uM relative to control. It counts as functional. Conditions: Homo sapiens, read-out: TGI.
The nature of experiment [3]: Growth inhibition in WS1 cells assessed as inhibition of [3H]thymidine incorporation. The experiment is classed as functional, cell-based. Conditions: Homo sapiens.
Experiment [4] relates to HCT-15. The experiment in a line: Growth inhibition in HCT15 cells assessed as inhibition of [3H]thymidine incorporation. The settings on record: Homo sapiens. The experiment is classed as functional, cell-based.
The test system of experiment [5] is HCT-116. The experiment in a line: Growth inhibition in HCT116 cells assessed as inhibition of [3H]thymidine incorporation. It counts as functional, cell-based. Conditions: Homo sapiens.

Consider `CC(C)C[C@@H]1NC(=O)[C@H](Cc2ccccc2)NC(=O)[C@H](CC(C)C)NC(=O)[C@H](C(C)C)N(C)C(=O)[C@H](CC(C)C)NC1=O`, for which the values for the inhibition of growth at 1 µM in the experiment with HCT-116 [1] and with HCT-15 [2] were 6% and 23%, respectively.

In general, IC50 refers to the midpoint of a concentration-inhibition curve. In the case of `CC(C)C[C@@H]1NC(=O)[C@H](Cc2ccccc2)NC(=O)[C@@H](Cc2ccccc2)N(C)C(=O)[C@H](C(C)C)NC(=O)[C@H](CC(C)C)NC1=O`, the inhibition of growth at 1 µM came out at 59% with HCT-116 [1] and 57% in the experiment with HCT-15 [2]. Besides, the figures for the IC50 (in experiment [3]; in the experiment on HCT-15 [4]) were 200 µM and 0.65 µM, respectively.

`CC(C)C[C@@H]1NC(=O)[C@H](Cc2ccccc2)NC(=O)[C@@H](Cc2ccccc2)NC(=O)[C@H](C(C)C)NC(=O)[C@H](CC(C)C)NC1=O`: the inhibition of growth at 1 µM was 35% with HCT-116 [1] and 14% with HCT-15 [2]. Moreover, the IC50 in the experiment on HCT-116 [5] was 200 µM; with HCT-15 [4], 300 µM.

As to `CC(C)C[C@@H]1NC(=O)[C@@H](Cc2ccccc2)NC(=O)[C@@H](CC(C)C)NC(=O)[C@@H](C(C)C)N(C)C(=O)[C@H](CC(C)C)NC1=O`, the inhibition of growth at 1 µM in the experiment on HCT-116 [1] came out at 44%; in the experiment with HCT-15 [2] it was 35%.

Consider `CC(C)C[C@@H]1NC(=O)[C@@H](CC(C)C)N(C)C(=O)[C@H](Cc2ccccc2)NC(=O)[C@H](C(C)C)NC(=O)[C@H](C(C)C)NC1=O`, for which the inhibition of growth at 1 µM is 42% in the experiment with HCT-116 [1] and 48% with HCT-15 [2]. The IC50 came to 200 µM in experiment [3], 2 µM in the experiment with HCT-116 [5] and 1.2 µM with HCT-15 [4].

For `CC(C)C[C@@H]1NC(=O)[C@H](C(C)C)NC(=O)[C@H](CC(C)C)N(C)C(=O)[C@H](CC(C)C)N(C)C(=O)[C@H](Cc2ccccc2)NC1=O`, the inhibition of growth at 1 µM in the experiment with HCT-116 [1] is 30%; in the experiment on HCT-15 [2] it was 57%.

`CC(C)C[C@@H]1NC(=O)[C@@H](C(C)C)N(C)C(=O)[C@H](CC(C)C)NC(=O)[C@@H](CC(C)C)NC(=O)[C@H](Cc2ccccc2)NC1=O`: the inhibition of growth at 1 µM in the experiment with HCT-116 [1] and with HCT-15 [2] was 0% throughout.

In the case of `CC(C)C[C@@H]1NC(=O)[C@H](Cc2ccccc2)NC(=O)[C@H](CC(C)C)NC(=O)[C@@H](C(C)C)N(C)C(=O)[C@H](CC(C)C)NC1=O`, the inhibition of growth at 1 µM in the experiment on HCT-116 [1] came to 19%; in the experiment on HCT-15 [2], 21%.

Consider `CC(C)C[C@@H]1NC(=O)[C@H](C(C)C)NC(=O)[C@H](CC(C)C)N(C)C(=O)[C@@H](CC(C)C)N(C)C(=O)[C@H](Cc2ccccc2)NC1=O`, for which the figures for the inhibition of growth at 1 µM in the experiment on HCT-116 [1] and in the experiment on HCT-15 [2] were 23% and 30%, respectively.

For `CC(C)C[C@@H]1NC(=O)[C@H](Cc2ccccc2)NC(=O)[C@H](CC(C)C)NC(=O)[C@@H](C(C)C)NC(=O)[C@H](CCCCNC(=O)OCc2ccccc2)NC1=O` (cyclo(FLK(Cbz)[dV]L)), the inhibition of growth at 1 µM came out at 16% in the experiment on HCT-116 [1] and 3% in the experiment with HCT-15 [2].

Regarding `CC(C)C[C@@H]1NC(=O)[C@H](Cc2ccccc2)NC(=O)[C@H](CC(C)C)NC(=O)[C@@H](C(C)C)NC(=O)[C@H](CCCCN)NC1=O` (cyclo(FLK[dV]L)), the inhibition of growth at 1 µM with HCT-116 [1] is 11%; in the experiment on HCT-15 [2] it was 18%.

Turning to `CC(C)C[C@@H]1NC(=O)[C@H](Cc2ccccc2)NC(=O)[C@H](CC(C)C)NC(=O)[C@H](C(C)C)NC(=O)[C@H](CC(C)C)NC1=O` (cyclo(FLLVL)), the values for the inhibition of growth at 1 µM in the experiment on HCT-116 [1] and in the experiment on HCT-15 [2] were 28% and 10%, respectively. For the same compound, the IC50 was found to be 300 µM in experiment [3] and 21 µM with HCT-15 [4].

`CC(C)C[C@@H]1NC(=O)[C@H](Cc2ccccc2)NC(=O)[C@@H](CC(C)C)NC(=O)[C@H](C(C)C)NC(=O)[C@H](CC(C)C)NC1=O` (cyclo(FLLV[dL])): the inhibition of growth at 1 µM turned out to be 18% with HCT-116 [1] and 10% in the experiment with HCT-15 [2].

Consider `CC(C)C[C@@H]1NC(=O)[C@H](Cc2ccccc2)NC(=O)[C@@H](CC(C)C)N(C)C(=O)[C@H](C(C)C)NC(=O)[C@H](CC(C)C)NC1=O` (cyclo(FLLV[dNMeL])), for which the results for the inhibition of growth at 1 µM with HCT-116 [1] and in the experiment with HCT-15 [2] were 25% and 33%, respectively.

Consider `CC(C)C[C@@H]1NC(=O)[C@H](Cc2ccccc2)NC(=O)[C@H](CC(C)C)NC(=O)[C@@H](Cc2ccccc2)NC(=O)[C@H](CC(C)C)NC1=O` (cyclo(FLL[dF]L)), for which the inhibition of growth at 1 µM in the experiment on HCT-116 [1] and with HCT-15 [2] was 11% each time.

Regarding `CC(C)C[C@@H]1NC(=O)[C@H](Cc2ccccc2)NC(=O)[C@H](CC(C)C)NC(=O)[C@@H](CO)NC(=O)[C@H](CC(C)C)NC1=O` (cyclo(FLL[dS]L)), the inhibition of growth at 1 µM with HCT-116 [1] turned out to be 0%; in the experiment on HCT-15 [2], 11%.

Take `CC(C)C[C@@H]1NC(=O)[C@H](Cc2ccccc2)NC(=O)[C@H](CC(C)C)NC(=O)[C@@H](C(C)C)NC(=O)[C@H](CC(C)C)NC1=O` (cyclo(FLL[dV]L)): the inhibition of growth at 1 µM with HCT-116 [1] and in the experiment on HCT-15 [2] was 48% throughout. Moreover, in experiment [3], the IC50 came out at 20 µM.

Consider `CC(C)C[C@@H]1NC(=O)[C@H](Cc2ccccc2)NC(=O)[C@@H](CC(C)C)NC(=O)[C@@H](C(C)C)NC(=O)[C@H](CC(C)C)NC1=O` (cyclo(FLL[dV][dL])), for which the figures for the inhibition of growth at 1 µM with HCT-116 [1] and in the experiment with HCT-15 [2] were 41% and 21%, respectively.

With `CC(C)C[C@@H]1NC(=O)[C@H](Cc2ccccc2)NC(=O)[C@H](CC(C)C)NC(=O)[C@H](C(C)C)NC(=O)[C@@H](CC(C)C)NC1=O` (cyclo(FL[dL]VL)), the inhibition of growth at 1 µM is 0% in the experiment on HCT-116 [1] and 15% with HCT-15 [2].

`CC(C)C[C@@H]1NC(=O)[C@H](C(C)C)NC(=O)[C@H](CC(C)C)NC(=O)[C@H](CC(C)C)N(C)C(=O)[C@H](Cc2ccccc2)NC1=O` (cyclo(F[NMeL]LVL)): the inhibition of growth at 1 µM is 59% in the experiment with HCT-116 [1] and 35% in the experiment with HCT-15 [2].

In the case of `CC(C)C[C@@H]1NC(=O)[C@@H](C(C)C)NC(=O)[C@H](CC(C)C)NC(=O)[C@H](CC(C)C)N(C)C(=O)[C@H](Cc2ccccc2)NC1=O` (cyclo(F[NMeL]L[dV]L)), the results for the inhibition of growth at 1 µM in the experiment on HCT-116 [1] and in the experiment on HCT-15 [2] were 38% and 19%, respectively.

Regarding `CC(C)C[C@@H]1NC(=O)CN(C)C(=O)[C@H](Cc2ccccc2)NC(=O)[C@H](C(C)C)NC(=O)[C@@H](C(C)C)NC1=O` (cyclo(F[Sar]L[dV]V)), the inhibition of growth at 1 µM in the experiment on HCT-116 [1] worked out at 20%; in the experiment on HCT-15 [2], 18%.

Turning to `CC(C)C[C@@H]1NC(=O)[C@@H](CC(C)C)NC(=O)[C@H](Cc2ccccc2)NC(=O)[C@H](CC(C)C)NC(=O)[C@@H](C(C)C)NC1=O` (cyclo(F[dL]L[dV]L)), the inhibition of growth at 1 µM in the experiment on HCT-116 [1] is 16%; in the experiment on HCT-15 [2], 20%.

`CC(C)C[C@@H]1NC(=O)[C@H](C(C)C)NC(=O)[C@@H](CC(C)C)NC(=O)[C@@H](CC(C)C)NC(=O)[C@H](Cc2ccccc2)NC1=O` (cyclo(F[dL][dL]VL)): the inhibition of growth at 1 µM stood at 28% with HCT-116 [1] and 40% in the experiment with HCT-15 [2].

As to `CC(C)C[C@@H]1NC(=O)[C@H](CC(C)C)NC(=O)[C@@H](Cc2ccccc2)NC(=O)[C@H](CC(C)C)NC(=O)[C@H](C(C)C)NC1=O` (cyclo(LLVL[dF])), the inhibition of growth at 1 µM with HCT-116 [1] was 30%; with HCT-15 [2], 26%.

With `CC(C)C[C@@H]1NC(=O)[C@H](CC(C)C)NC(=O)[C@@H](Cc2c[nH]c3ccccc23)NC(=O)[C@H](CC(C)C)NC(=O)[C@H](C(C)C)NC1=O` (cyclo(LLVL[dW])), the inhibition of growth at 1 µM in the experiment with HCT-116 [1] was 2%; in the experiment on HCT-15 [2] it was 9%.

As for `CC(C)C[C@@H]1NC(=O)[C@H](CC(C)C)NC(=O)[C@@H](Cc2ccc(O)cc2)NC(=O)[C@H](CC(C)C)NC(=O)[C@H](C(C)C)NC1=O` (cyclo(LLVL[dY])), the inhibition of growth at 1 µM in the experiment on HCT-116 [1] worked out at 45%; with HCT-15 [2], 60%. Besides, the half-maximal inhibitory concentration (IC50) in experiment [3] was determined as 200 µM.

`CC(C)C[C@@H]1NC(=O)[C@H](Cc2ccc(O)cc2)NC(=O)[C@H](CC(C)C)N(C)C(=O)[C@H](C(C)C)NC(=O)[C@H](CC(C)C)NC1=O` (cyclo(LLV[NMeL]Y)): the inhibition of growth at 1 µM in the experiment with HCT-116 [1] turned out to be 20%; in the experiment on HCT-15 [2] it was 3%.

Regarding `CC(C)C[C@@H]1NC(=O)[C@H](Cc2ccccc2)NC(=O)[C@H](CC(C)C)NC(=O)[C@@H](C(C)C)N(C)C(=O)[C@H](CC2CCCCC2)NC1=O` (cyclo([Cha][dNMeV]LFL)), the results for the inhibition of growth at 1 µM with HCT-116 [1] and in the experiment on HCT-15 [2] were 48% and 60%, respectively. The results for the IC50 (in experiment [3]; in the experiment with HCT-116 [5]) were 16 µM and 2 µM, respectively.

With `CC(C)C[C@@H]1NC(=O)[C@H](CC(C)C)NC(=O)[C@H](Cc2ccccc2)N(C)C(=O)[C@H](CC(C)C)NC(=O)[C@H](C(C)C)NC1=O` (cyclo([NMeF]LLVL)), the figures for the inhibition of growth at 1 µM with HCT-116 [1] and with HCT-15 [2] were 2% and 18%, respectively.

Regarding `CC(C)C[C@@H]1NC(=O)[C@H](C(C)C)NC(=O)[C@H](CC(C)C)NC(=O)[C@@H](CC(C)C)N(C)C(=O)[C@H](Cc2ccccc2)NC1=O` (cyclo([dNMeL]LVLF)), the inhibition of growth at 1 µM was determined as 45% with HCT-116 [1] and 10% in the experiment with HCT-15 [2].

Turning to `O=c1[nH]cc(F)c(=O)[nH]1` [FLUOROURACIL], the IC50 (in experiment [3]; in the experiment with HCT-116 [5]; in the experiment with HCT-15 [4]) was 300 µM throughout.
